Where a SMILES comes first, the peptide text is derived from it.
Key:
SHIP = target: T1, SHIP (Rattus norvegicus, UniProt P97573); test: Cell lysate adsorption to peptides, anti-SHIP immunoblot; format: binding; details: RBL-2H3 lysates, peptide on streptavidin beads
T1 construct: RBL-2H3 cells were lysed in NP-40 lysis buffer; endogenous in cells; host or cells: RBL-2H3
T1 sequence (P97573 1-1190): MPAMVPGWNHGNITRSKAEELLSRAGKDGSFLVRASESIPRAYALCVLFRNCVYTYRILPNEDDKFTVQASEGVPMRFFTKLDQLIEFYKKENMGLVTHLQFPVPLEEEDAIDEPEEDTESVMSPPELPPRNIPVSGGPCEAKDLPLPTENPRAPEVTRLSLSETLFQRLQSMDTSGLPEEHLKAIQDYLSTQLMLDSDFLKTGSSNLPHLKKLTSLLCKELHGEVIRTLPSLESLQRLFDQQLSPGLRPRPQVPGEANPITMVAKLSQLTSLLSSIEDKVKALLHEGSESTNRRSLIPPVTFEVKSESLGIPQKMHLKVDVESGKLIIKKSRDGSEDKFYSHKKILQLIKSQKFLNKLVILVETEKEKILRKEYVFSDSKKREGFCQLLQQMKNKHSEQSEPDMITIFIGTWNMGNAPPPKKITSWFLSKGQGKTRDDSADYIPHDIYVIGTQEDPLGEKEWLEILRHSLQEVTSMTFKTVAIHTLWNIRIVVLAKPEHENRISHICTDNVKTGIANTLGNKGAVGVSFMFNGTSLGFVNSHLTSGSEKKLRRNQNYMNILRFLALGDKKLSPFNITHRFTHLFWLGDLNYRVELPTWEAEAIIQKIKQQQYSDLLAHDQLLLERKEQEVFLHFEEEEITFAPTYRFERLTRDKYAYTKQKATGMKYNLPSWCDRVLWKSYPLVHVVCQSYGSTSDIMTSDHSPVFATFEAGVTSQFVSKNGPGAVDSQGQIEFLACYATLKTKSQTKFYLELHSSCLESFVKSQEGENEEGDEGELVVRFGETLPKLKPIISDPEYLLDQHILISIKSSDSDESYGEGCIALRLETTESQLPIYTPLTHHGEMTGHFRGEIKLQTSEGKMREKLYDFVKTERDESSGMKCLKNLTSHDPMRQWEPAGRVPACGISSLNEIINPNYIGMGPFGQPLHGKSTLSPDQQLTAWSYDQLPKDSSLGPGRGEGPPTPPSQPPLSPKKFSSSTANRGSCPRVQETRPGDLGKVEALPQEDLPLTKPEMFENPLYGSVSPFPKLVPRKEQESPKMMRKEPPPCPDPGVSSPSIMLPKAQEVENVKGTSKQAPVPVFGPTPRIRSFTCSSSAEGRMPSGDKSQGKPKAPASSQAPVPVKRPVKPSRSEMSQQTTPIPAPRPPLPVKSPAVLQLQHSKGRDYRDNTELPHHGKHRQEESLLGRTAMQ
Experimental: (§1) Assay for cell lysate adsorption to peptides. RBL-2H3 cells were lysed in NP-40 lysis buffer (1% NP-40, 10 mM Tris-HCl, 150 mM NaCl, 1 mM EDTA, 1 mM PMSF, 10 mM iodoacetamide, 10 mM NaF, 10 mM Na pyrophosphate, 0.4 mM Na vanadate, 10 μg/ml leupeptine, 10 μg/ml aprotinine). Samples were either used directly (whole cell lysates: WCL), or subjected to affinity purification using peptides bound to beads. Biotinylated peptides (5 μg) were coupled to 50 μl streptavidin-agarose bead slurry (Sigma) for 1 hour at 4° C., prior to bead saturation with D-biotin (1 mg/ml) for 1 hour at 4° C. After 3 washes in lysis buffer, samples were separated on SDS-PAGE and transferred to nitrocellulose.
(§2) RBL-2H3 and ^35S-labeled IIA.1.6 cells were lysed in NP-40 lysis buffer (1% NP-40, 10 mM Tris-HCl, 150 mM NaCl, 1 mM EDTA, 1 mM PMSF, 10 mM iodoacetamide, 10 mM NaF, 10 mM Na pyrophosphate, 0.4 mM Na vanadate, 10 μg/ml leupeptin, 10 μg/ml aprotinin). Samples were either used directly (whole cell lysates: WCL), or subjected to affinity purification using peptides bound to beads. Biotinylated peptides (5 μg) were coupled to 50 μl streptavidin-agarose slurry beads for 1 hour at 4° C., prior to bead saturation with D-biotin (1 mg/ml) for 1 hour at 4° C. After 3 washes in lysis buffer, samples were fractionated on 8% SDS-polyacrylamide gel electrophoresis (SDS-PAGE) under reducing condition and transferred to nitrocellulose.
(§3) Results are illustrated by FIG. 15 showing the in vitro interaction between NKG2A ITIMs and SHP-1, SHP-2 and SHIP phosphatases. In FIG. 15, RBL-2H3 cell lysates (15A) or ^35S-labeled ILA.1.6 cell lysates (15B) were absorbed with indicated biotinylated peptides coupled to streptavidin-beads. Affinity-bound proteins (30×10^6 cells/sample) or whole cell lysates (WCL, 5×10^6 cells/sample) were resolved on 8% SDS-PAGE under reducing conditions prior to autoradiography (15B), or immunoblotting using anti-SHIP antiserum, anti-SHP-2 mAb and anti-SHP-1 mAbs (15A).

SHP-1 = target: T2, SHP-1 (Rattus norvegicus, UniProt P81718); test: Cell lysate adsorption to peptides, anti-SHP-1 immunoblot; format: binding; details: RBL-2H3 lysates, peptide on streptavidin beads
T2 construct: endogenous in cells; host or cells: RBL-2H3
T2 sequence (P81718 whole entry): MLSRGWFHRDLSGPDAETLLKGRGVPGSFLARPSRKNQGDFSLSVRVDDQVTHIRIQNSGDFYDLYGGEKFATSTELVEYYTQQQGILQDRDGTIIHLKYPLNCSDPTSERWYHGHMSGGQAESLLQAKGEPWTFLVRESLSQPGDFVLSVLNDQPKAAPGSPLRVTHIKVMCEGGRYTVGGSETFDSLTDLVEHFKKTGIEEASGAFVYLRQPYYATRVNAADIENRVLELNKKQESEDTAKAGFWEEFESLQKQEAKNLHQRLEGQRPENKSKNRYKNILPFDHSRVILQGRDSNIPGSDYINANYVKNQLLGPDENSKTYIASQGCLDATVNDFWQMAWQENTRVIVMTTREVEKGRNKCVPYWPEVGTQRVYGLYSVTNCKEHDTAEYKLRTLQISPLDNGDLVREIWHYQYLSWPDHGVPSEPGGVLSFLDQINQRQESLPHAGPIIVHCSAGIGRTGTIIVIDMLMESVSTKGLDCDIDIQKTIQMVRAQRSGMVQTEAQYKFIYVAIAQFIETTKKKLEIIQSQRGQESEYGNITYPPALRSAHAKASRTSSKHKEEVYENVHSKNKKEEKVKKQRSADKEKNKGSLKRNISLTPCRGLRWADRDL
Experimental: as §1, §2, §3

SHP-2 = target: T3, SHP-2 (Rattus norvegicus, UniProt P41499); test: Cell lysate adsorption to peptides, anti-SHP-2 immunoblot; format: binding; details: RBL-2H3 lysates, peptide on streptavidin beads
T3 construct: RBL-2H3 cells were lysed in NP-40 lysis buffer; endogenous in cells; host or cells: RBL-2H3
T3 sequence (P41499 1-593): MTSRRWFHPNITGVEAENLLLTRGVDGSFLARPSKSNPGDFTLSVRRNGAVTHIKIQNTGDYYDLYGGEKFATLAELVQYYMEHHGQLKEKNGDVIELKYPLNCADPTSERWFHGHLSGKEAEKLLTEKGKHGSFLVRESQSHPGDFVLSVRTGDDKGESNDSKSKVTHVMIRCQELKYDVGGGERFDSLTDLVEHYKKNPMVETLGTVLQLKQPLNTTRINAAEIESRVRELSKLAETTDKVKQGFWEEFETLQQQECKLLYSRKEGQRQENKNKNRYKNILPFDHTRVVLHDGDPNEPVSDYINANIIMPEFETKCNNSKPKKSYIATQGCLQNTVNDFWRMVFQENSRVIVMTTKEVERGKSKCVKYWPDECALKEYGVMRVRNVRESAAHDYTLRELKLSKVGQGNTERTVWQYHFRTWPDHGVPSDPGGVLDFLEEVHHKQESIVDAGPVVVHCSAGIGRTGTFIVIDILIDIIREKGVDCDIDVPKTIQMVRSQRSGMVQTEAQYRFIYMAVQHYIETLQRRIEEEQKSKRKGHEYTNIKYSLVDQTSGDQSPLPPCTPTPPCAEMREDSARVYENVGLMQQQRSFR
Experimental: as §1, §2, §3

GST-SHP-1.SH2(C) = target: T4, GST-SHP-1.SH2(C) (Mus musculus, UniProt P29351); test: Surface plasmon resonance (BIAcore), SHP-1 C-SH2 domain; format: binding, murine; details: phosphorylated peptide immobilized; 5 μl/min
T4 construct: recombinant fusion proteins corresponding to the isolated N- and C-SH2 domains of SHP-1; made in house; host or cells: E. coli DH5α
T4 sequence (P29351 110-213 limits assumed): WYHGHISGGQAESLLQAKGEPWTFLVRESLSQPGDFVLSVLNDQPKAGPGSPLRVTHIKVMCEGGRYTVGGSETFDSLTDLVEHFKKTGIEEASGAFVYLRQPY
Experimental: (§4) Fusion proteins and surface plasmon resonance analysis. Surface plasmon resonance (SPR) measurements were performed on a BIAcore™ (Pharmacia). The GST-SHP-1.SH2(NC), GST-SHP-1.SH2(N), GST-SHP-1.SH2(C), GST-SHIP.SH2 fusion proteins generated from the murine phosphatase cDNA, were purified from DH5α lysates. Briefly, overnight culture at 37° C. in LB medium containing 50 μg/ml ampicillin was diluted 1/10 in fresh medium, and incubated until the absorbance at 600 nm reaches 1-2. At that point, IPTG was added (1 mM), and incubation continued for an additional 4 hours at 37° C. After centrifugation, bacteria pellet was resuspended in TENGN buffer (50 mM Tris pH 8, 1 mM EDTA, 10% glycerol, 1% NP40, 1 mM DTT, 1 mM PMSF, 10 μg/ml aprotinin and 10 μg/ml leupeptine). Bacteria were lysed by sonication. After centrifugation, supernatant was incubated with Glutathione-Sepharose 4B beads (Pharmacia) overnight at 4° C. with slow shaking. After 3 washes with 50 mM Tris pH 8, elution of the fusion protein was carried out using 50 mM Tris pH 8 supplemented with 10 mM reduced glutathione. Before their use in BIAcore™ experiments, fusion proteins were dialyzed in HBS buffer (10 mM HEPES, 150 mM NaCl, 3.4 mM EDTA). Protein purity was assessed by 12.5% SDS-PAGE, and Coomassie blue staining. The running buffer used in all BIAcore™ experiments consisted of HBS buffer supplemented with 0.05% surfactant P20. For preparation of microchips coated with phosphorylated peptides, immunopure streptavidine (Sigma) was first immobilized onto CMS-sensorchip. Then, biotinylated peptides were injected, and their binding to streptavidine-coated microchips was assessed using anti-phosphotyrosine 4G10 mAb (UHI).
(§5) The measurement of phosphorylated p58.2 peptide binding to GST-SHP-1.SH2(N) and GST-SHP-1.SH2(C) fusion proteins was at a constant 5 μl/min flow rate. In the representative experiment of which results are reported in the above table I, 130 and 160 RU of respectively p58.2.1 and p58.2.2 peptides were immobilized on microchips. The regeneration was performed using HBS buffer supplemented with 0.03% SDS. Results are expressed as corrected resonance units (CRU) corresponding to the raw RU values subtracted from background RU value due to the injection medium. […] koff and kon were calculated from three independent measurements using the BLAevaluation 2.0 software. Kd was calculated from koff/kon.

GST-SHP-1.SH2(N) = target: T5, GST-SHP-1.SH2(N) (Mus musculus, UniProt P29351); test: Surface plasmon resonance (BIAcore), SHP-1 N-SH2 domain; format: binding, murine
T5 construct: recombinant fusion proteins corresponding to the isolated N- and C-SH2 domains of SHP-1; made in house; host or cells: E. coli DH5α
T5 sequence (P29351 4-100 limits assumed): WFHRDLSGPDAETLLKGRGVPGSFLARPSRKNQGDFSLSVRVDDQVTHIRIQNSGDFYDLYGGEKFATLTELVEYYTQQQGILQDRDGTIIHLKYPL
Experimental: as §4, §5

[1] = phosphorylated peptide immobilized, 5 μl/min

| binding of SHIP from cell lysates (SHIP) | binding of SHP-1 from cell lysates (SHP-1) | binding of SHP-2 from cell lysates (SHP-2) | Molecule | koff (GST-SHP-1.SH2(C)) | kon (GST-SHP-1.SH2(C)) | Kd (GST-SHP-1.SH2(N)) | koff (GST-SHP-1.SH2(N); [1]) | kon (GST-SHP-1.SH2(N); [1]) |
| --- | --- | --- | --- | --- | --- | --- | --- | --- |
| not affected | abolishes the binding | abolishes the binding | KTEAENTATY262SLLK (KTEAENTATYSLLK) [FcγRIIB 1-I260A, point mutant of FcγRIIB ITIM peptide] |  |  |  |  |  |
|  |  |  | CC[C@H](C)[C@H](NC(=O)[C@H](CC(=O)O)NC(=O)[C@@H](NC(=O)[C@@H]1CCCN1C(=O)[C@@H]1CCCN1C(=O)[C@@H](NC(=O)[C@H](CCCCN)NC(=O)[C@@H]1CCCN1C(=O)[C@H](CCCNC(=N)N)NC(=O)[C@H](CCC(N)=O)NC(=O)[C@H](CO)NC(=O)[C@@H]1CCCN1C(=O)[C@H](CCCNC(=N)N)NC(=O)CCCC[C@@H]1SC[C@@H]2NC(=O)N[C@@H]21)[C@@H](C)O)[C@@H](C)O)C(=O)N[C@H](C(=O)N[C@H](C(=O)N[C@@H](Cc1ccc(OP(=O)(O)O)cc1)C(=O)N[C@H](C(=O)N[C@@H](CCC(=O)O)C(=O)N[C@@H](CC(C)C)C(=O)N1CCC[C@H]1C(=O)N[C@@H](CC(N)=O)C(=O)N[C@@H](C)C(=O)N[C@@H](CCC(=O)O)C(=O)N1CCC[C@H]1C(=O)O)[C@@H](C)O)C(C)C)[C@@H](C)CC [p58.2.2, RP SQ RPKTPPTDIIVY333TELPNAEP] (HELM PEPTIDE1{[O=C1N[C@H]2[C@H](CS[C@H]2CCCCC(=O)[*:2])N1].R.P.S.Q.R.P.K.T.P.P.T.D.I.I.V.[O=C([C@H](Cc1ccc(OP(=O)(O)O)cc1)N[*:1])[*:2]].T.E.L.P.N.A.E.P}$$$$V2.0) | 0.0003 s⁻¹ | 600 M⁻¹ s⁻¹ | 3.16 µM | 0.025 s⁻¹ | 8000 M⁻¹ s⁻¹ |
| No association | No association | No association | KTEAENTITY262SLLK [nonphosphorylated peptides corresponding to FcγRIIB] |  |  |  |  |  |

— patent publication US20040038894A1, “Compounds for modulating cell negative regulations and biological applications thereof” (INSTITUT NATIONAL DE LA SANTE ET DE LA RECHERCHE MEDICALE …, priority 1996, published 2004)
